Measured values as given in patent US6221914A, “Sulfonamide bridging compounds that inhibit tryptase activity” (Array Biopharma Inc., priority 1998, dated 2001).

Assays:
Assay type in all cases: biochemical
Human plasma plasmin = biological target: T1, Human plasma plasmin (Homo sapiens, UniProt P00747); assay: Ki determination, human plasma plasmin (Tosyl-Gly-Pro-Lys-pNA); conditions: 100 mM Tris-HCl, pH 7.4, 100 mM NaCl, 0.05% Triton X-100; read-out: Experimentally Determined Ki, Plasmin
T1 construct: from tissue; host or cells: human plasma
Experimental: (§1) Protease inhibition was assayed according to published procedures with minor modifications using various proteases and specific chromogenic peptide p-nitroanilide substrates. Assays were performed in Costar ultra-low cluster 96-well microtiter plate (Costar Corning Corp., Cambridge Mass.). Each protease was incubated with various concentrations of the test compound for 15 min. at 37° C. or as otherwise indicated, in specific assay buffer, and the residual activity was then measured by addition of the substrate. p-Nitroaniline produced by the proteolysis was determined by measuring the change in absorbance at 405 nm on a SpectraMAX 340 plate reader (Molecular devices, Sunnyvale, Calif.).
(§2) 1. The inhibition constant, Ki is calculated from individual data points using the equation for a tight-binding inhibitor (See Beith, "Proteinase Inhibitors-Proceedings of 2nd Int. Res. Conference", Fritz, et al. eds, New York, p.4463-4469 (1974)):
(§3) vi /vo [((Ki '+[I]+[E]o)^2 -4 [I]o
(§4) [E]o)^1/2 (Ki '+[I]o -[E]o)]/2[E]o
(§5) where Ki ' is apparent inhibition constant; vi and vo are the inhibited and uninhibited rates, respectively; [I]o and [E]o are the total concentrations of inhibitor and enzyme, respectively.
(§6) [note: [E]o is determined by active site titration of enzyme]
(§7) The Ki values are obtained by correcting Ki ' values for the effect of substrate concentration according to: [formula]
(§8) 2. Other inhibition data (Ki >>[E]o), the Ki is calculated from using the equations for a competitive inhibitor: [formula]
Human plasma plasmin activity was determined by using Tosyl-Gly-Pro-Lys-pNAin 100 mM Tris-HCl, pH 7.4, 100 mM NaCl, 0.05% Triton X-100 (See Lottenberg, et al., Meth. Enzymol. 80, 341-361 (1981)).
(§9) The inhibition constant (Ki) of the test compounds against each proteolytic enzyme was determined according to Zitnik et al., Biochem. Biophys. Res. Commun. 232, 687-697 (1997)).

[1] = biological target: T2, Human Neutrophil Cathepsin G (Homo sapiens, UniProt P08311); assay: Ki determination, human neutrophil cathepsin G (N-Suc-Ala-Ala-Pro-Phe-pNA); conditions: 625 mM Tris-HCl, pH 7.5, 2.5 mM MgCl2, 0.125% Brij 35; read-out: Experimentally Determined Ki, Cathepsin G
T2 construct: from tissue; host or cells: human neutrophils
T2 sequence (P08311 21-255): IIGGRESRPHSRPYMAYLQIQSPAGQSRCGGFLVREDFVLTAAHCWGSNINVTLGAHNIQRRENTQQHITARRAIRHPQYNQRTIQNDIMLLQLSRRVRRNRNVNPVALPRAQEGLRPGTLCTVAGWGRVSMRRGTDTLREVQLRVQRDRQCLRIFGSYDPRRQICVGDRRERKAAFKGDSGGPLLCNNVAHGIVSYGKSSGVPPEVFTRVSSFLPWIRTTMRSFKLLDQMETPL
Experimental: as §1, §2, §3, §4, §5, §6, §7, §8
Human Neutrophil Cathepsin G activity was determined by using N-Suc-Ala-Ala-Pro-Phe-pNA in 625 mM Tris-HCl, pH 7.5, 2.5 mM MgCl2, 0.125% Brij 35 (See Groutas et al., Arch. Biochem. Biophys. 294, 144-146 (1992)).
as §9

Human plasma thrombin = biological target: T3, Human plasma thrombin (Homo sapiens, UniProt P00734); assay: Ki determination, human plasma thrombin (H-D-Phe-Pip-Arg-pNA); conditions: 50 mM Tris-HCl, pH 8.3, 100 mM NaCl, 1% BSA; read-out: Experimentally Determined Ki, Thrombin
T3 construct: from tissue; host or cells: human plasma
Experimental: as §1, §2, §3, §4, §5, §6, §7, §8
Human plasma thrombin activity was determined by using H-D-Phe-Pip-Arg-pNA in 50 mM Tris-HCl, pH 8.3, 100 mM NaCl, 1% BSA (See Lottenberg, et al. Meth. Enzymol. 80, 341-361 (1981)).
as §9

Human lung tryptase = assay: Ki determination, human lung tryptase (Tosyl-Gly-Pro-Arg-pNA substrate); conditions: 50 mM Tris-HCl pH 8.0, 37° C., 1 nM tryptase, 320 μM GPR-pNA; read-out: Experimentally Determined Ki, Tryptase
Experimental: as §1, §2, §3, §4, §5, §6, §7, §8
Human lung tryptase purchased from Cortex Biochem (San Leandro, Calif.) was purified further on a Superdex 200 gel-filtration column. The active-site concentration of the enzyme was determined by spectrophotometric titration with 4-nitrophenyl 4'-guanidinobenzoate according to Schwartz, et al., J. Immunol., 114, 2304-2311 (1990). Tryptase activity was measured according to the procedures of Schwartz, et al., J. Biol. Chem., 261, 7372-7379 (1986) (See also, Schwartz, L. B., Methods In Enzymology, 244, 88 (1994)) with minor modifications, using Tosyl-Gly-Pro-Arg-p-nitroanilide ("GPR-pNA", Sigma Chemical Co., St. Louis, Mo., T-1637) as a chromogenic substrate. The reaction was performed in 50 mM Tris-HCl, pH 8.0, containing 150 mM NaCl and 0.02% Triton X-100 at 37° C. in Costar ultra-low cluster 96-well microtiter plates (Costar Corning Corp., Cambridge, Mass.). The amount of pNA produced by tryptase was determined by measuring the change in absorbance at 405 nm on a SpectraMAX 340 plate reader (Molecular devices, Sunnyvale, Calif.). The Km for the substrate was determined by Lineweaver-Burk analysis from initial velocities of substrate hydrolysis. The inhibition assay was carried out in a total volume of 200 μL. Tryptase (30 μL- final concentration 1 nM) was incubated with various concentrations of sample compound (50 μL) to be tested in the above assay buffer for 5 min. The reaction was started by the addition of substrate GPR-pNA (40 μL-final concentration 320 μM), and the residual activity was measured after 15 min. of incubation. The inhibition constant, Ki, was determined by fitting the inhibition data to a two-site competitive binding equation using data analysis program GraphPad PRISM (GraphPad Software, Inc., San Diego, Calif.).
as §9

[2] = biological target: T4, Human Neutrophil elastase (Homo sapiens, UniProt P08246); assay: Ki determination, human neutrophil elastase (pyroGlu-Pro-Val-pNA); conditions: 100 mM Tris-HCl, pH 8.3, 0.96 M NaCl, 1% BSA; read-out: Experimentally Determined Ki, Elastase
T4 construct: from tissue; host or cells: human neutrophils
T4 sequence (P08246 30-267): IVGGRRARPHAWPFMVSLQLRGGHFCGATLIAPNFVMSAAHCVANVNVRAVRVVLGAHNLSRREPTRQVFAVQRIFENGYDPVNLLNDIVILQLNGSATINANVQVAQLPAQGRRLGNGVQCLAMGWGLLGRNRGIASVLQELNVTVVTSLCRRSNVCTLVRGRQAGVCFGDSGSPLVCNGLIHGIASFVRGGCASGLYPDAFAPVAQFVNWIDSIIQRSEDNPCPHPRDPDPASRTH
Experimental: as §1, §2, §3, §4, §5, §6, §7, §8
Human Neutrophil elastase activity was determined by using pyroGlu-Pro-Val-pNA in 100 mM Tris-HCl, pH 8.3, 0.96 M NaCl, 1% BSA (See Kramps, et al. Scand. J. Clin. Lab. Invest. 43, 427-432 (1983)).
as §9

Human plasma factor Xa = biological target: T5, Human plasma factor Xa (Homo sapiens, UniProt P00742); assay: Ki determination, human plasma factor Xa (N-Benzoyl-Ile-Glu-Gly-Arg-pNA); conditions: 50 mM Tris-HCl, pH 7.8, 200 mM NaCl, 0.05% BSA; read-out: Experimentally Determined Ki, Factor Xa
T5 construct: from tissue; host or cells: human plasma
Experimental: as §1, §2, §3, §4, §5, §6, §7, §8
Human plasma factor Xa activity was determined by using N-Benzoyl-Ile-Glu-Gly-Arg-pNA in 50 mM Tris-HCl, pH 7.8, 200 mM NaCl, 0.05% BSA (See Lottenberg, et al. Meth. Enzymol. 80, 341-361 (1981)).
as §9

Human plasma kallikrein = biological target: T6, Human plasma kallikrein (Homo sapiens, UniProt P03952); assay: Ki determination, human plasma kallikrein (H-D-Prolyl-Phe-Arg-pNA); conditions: 50 mM Tris-HCl, pH 7.8, 200 mM NaCl, 0.05% BSA; read-out: Experimentally Determined Ki, Plasma Kallikrein
T6 construct: from tissue; host or cells: human plasma
Experimental: as §1, §2, §3, §4, §5, §6, §7, §8
(§10) I. Human Plasma and r-Tissue Kallikrein
(§11) Human plasma and r-tissue kallikrein activity were determined in 50 mM Tris-HCl, pH 7.8, 200 mM NaCl, 0.05% BSA by using H-D-Prolyl-Phe-Arg-pNA and DL-Val-Leu-Arg-pNA, respectively (See Lottenberg, et al., Meth. Enzymol. 80, 341-361 (1981)).
as §9

r-tissue kallikrein = r-tissue kallikrein (Homo sapiens, UniProt P06870); assay: Ki determination, r-tissue kallikrein (DL-Val-Leu-Arg-pNA); conditions: 50 mM Tris-HCl, pH 7.8, 200 mM NaCl, 0.05% BSA; read-out: Experimentally Determined Ki, Tissue Kallikrein
Experimental: as §1, §2, §3, §4, §5, §6, §7, §8, §10, §11, §9

[3] = biological target: T7, Bovine pancreatic Trypsin (Bos taurus, UniProt P00760); assay: Ki determination, bovine pancreatic trypsin (N-a-Benzoyl-L-Arg-pNA); conditions: 50 mM Tris-HCl, pH 8.2, 20 mM CaCl2; read-out: Experimentally Determined Ki, Trypsin
T7 construct: from tissue; host or cells: bovine pancreas
T7 sequence (P00760 24-246): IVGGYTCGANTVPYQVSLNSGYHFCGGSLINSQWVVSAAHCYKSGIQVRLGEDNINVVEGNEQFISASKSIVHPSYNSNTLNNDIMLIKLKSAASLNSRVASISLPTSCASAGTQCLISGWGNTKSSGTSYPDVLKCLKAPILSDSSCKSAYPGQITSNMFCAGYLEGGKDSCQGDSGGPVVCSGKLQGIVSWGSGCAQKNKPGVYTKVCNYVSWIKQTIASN
Experimental: as §1, §2, §3, §4, §5, §6, §7, §8
Bovine pancreatic Trypsin (TPCK-treated) activity was determined by using N-a-Benzoyl-L-Arg-pNA in 50 mM Tris-HCl, pH 8.2, 20 mM CaCl2 (See Somorin, et al., J. Biochem. 85, 157-162 (1979)).
as §9

[4] = biological target: T8, Bovine Pancreatic Chymotrypsin (Bos taurus, UniProt P00766); assay: Ki determination, bovine pancreatic chymotrypsin (N-Suc-Ala-Ala-Pro-Phe-pNA); conditions: 100 mM Tris-HCl, pH 7.8, 10 mM CaCl2; read-out: Experimentally Determined Ki, Chymotrypsin
T8 construct: from tissue; host or cells: bovine pancreas
Experimental: as §1, §2, §3, §4, §5, §6, §7, §8
Bovine Pancreatic Chymotrypsin activity was determined by using N-Suc-Ala-Ala-Pro-Phe-pNA in 100 mM Tris-HCl, pH 7.8, 10 mM CaCl2 (See Delmar, et al., J. Biochem. 85, 157-162 (1979)).
as §9

T5 sequence (P00742 235-488 limits assumed): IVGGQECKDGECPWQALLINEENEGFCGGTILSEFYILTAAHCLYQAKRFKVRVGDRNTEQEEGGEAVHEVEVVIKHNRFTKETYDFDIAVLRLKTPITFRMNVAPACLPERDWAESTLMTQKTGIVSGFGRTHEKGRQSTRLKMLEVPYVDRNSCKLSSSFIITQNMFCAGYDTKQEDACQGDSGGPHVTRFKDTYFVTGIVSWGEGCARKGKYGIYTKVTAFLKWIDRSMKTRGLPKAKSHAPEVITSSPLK
T5 sequence (P00742 41-179 partner limits assumed): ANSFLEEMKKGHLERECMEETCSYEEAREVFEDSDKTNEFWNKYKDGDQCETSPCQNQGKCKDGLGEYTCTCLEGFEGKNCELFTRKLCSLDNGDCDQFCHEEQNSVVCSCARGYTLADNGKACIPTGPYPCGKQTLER
T1 sequence (P00747 581-810 limits assumed): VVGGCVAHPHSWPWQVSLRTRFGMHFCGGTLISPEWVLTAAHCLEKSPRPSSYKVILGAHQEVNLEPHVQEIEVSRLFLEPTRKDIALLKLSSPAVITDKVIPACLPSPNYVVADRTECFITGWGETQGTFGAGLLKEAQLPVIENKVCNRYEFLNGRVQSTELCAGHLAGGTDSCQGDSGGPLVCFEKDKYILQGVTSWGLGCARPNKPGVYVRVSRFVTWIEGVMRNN
T1 sequence (P00747 97-580 partner limits assumed): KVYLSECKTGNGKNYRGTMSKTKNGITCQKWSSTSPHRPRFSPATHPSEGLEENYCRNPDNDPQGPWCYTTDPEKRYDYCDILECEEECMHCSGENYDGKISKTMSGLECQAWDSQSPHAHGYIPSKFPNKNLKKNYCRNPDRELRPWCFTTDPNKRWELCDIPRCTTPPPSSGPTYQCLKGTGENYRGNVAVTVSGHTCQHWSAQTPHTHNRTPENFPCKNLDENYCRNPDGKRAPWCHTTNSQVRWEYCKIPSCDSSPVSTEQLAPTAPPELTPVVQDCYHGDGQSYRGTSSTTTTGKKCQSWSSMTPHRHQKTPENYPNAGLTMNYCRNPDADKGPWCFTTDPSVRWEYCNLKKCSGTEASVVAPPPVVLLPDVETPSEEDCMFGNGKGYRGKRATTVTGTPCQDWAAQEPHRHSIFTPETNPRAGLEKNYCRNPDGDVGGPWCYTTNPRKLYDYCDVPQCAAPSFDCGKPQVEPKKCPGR
Sequence of r-tissue kallikrein (P06870 25-262): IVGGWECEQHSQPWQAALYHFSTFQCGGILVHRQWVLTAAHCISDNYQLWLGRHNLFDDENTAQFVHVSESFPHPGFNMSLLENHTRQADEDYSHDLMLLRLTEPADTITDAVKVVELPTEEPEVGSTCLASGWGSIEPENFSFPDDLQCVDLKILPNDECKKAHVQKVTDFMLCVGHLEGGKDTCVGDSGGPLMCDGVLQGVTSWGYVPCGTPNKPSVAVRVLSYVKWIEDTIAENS
T6 sequence (P03952 391-638 limits assumed): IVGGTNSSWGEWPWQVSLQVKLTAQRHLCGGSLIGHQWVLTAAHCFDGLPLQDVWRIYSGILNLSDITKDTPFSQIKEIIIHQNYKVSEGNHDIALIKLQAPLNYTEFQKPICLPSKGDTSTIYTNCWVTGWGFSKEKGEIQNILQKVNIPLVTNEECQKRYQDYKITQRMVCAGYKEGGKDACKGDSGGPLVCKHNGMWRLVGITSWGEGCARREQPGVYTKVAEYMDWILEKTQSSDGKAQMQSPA
T6 sequence (P03952 20-390 partner limits assumed): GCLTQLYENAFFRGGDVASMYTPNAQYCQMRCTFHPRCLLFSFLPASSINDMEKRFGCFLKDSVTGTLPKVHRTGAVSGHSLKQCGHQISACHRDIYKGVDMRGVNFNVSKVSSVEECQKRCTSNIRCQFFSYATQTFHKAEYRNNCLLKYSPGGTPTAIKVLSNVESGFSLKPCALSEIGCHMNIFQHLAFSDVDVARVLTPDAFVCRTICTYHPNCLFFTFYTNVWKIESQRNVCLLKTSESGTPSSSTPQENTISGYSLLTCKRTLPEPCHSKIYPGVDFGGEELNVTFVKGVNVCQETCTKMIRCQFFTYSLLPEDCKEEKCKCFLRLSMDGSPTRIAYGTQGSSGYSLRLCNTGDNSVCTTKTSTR

Row | Ki (Human plasma plasmin) | Ki [1] | Ki (Human plasma thrombin) | Ki (Human lung tryptase) | Ki [2] | Ki (Human plasma factor Xa) | Ki (Human plasma kallikrein) | Ki (r-tissue kallikrein) | Ki [3] | Ki [4] | SMILES
1 | > 100 µM | > 100 µM | > 100 µM | 0.25 µM | > 100 µM | 47 µM |  |  |  |  | N=C(N)c1ccc(S(=O)(=O)NCc2ccc(OCCCCCOc3ccc(CNS(=O)(=O)c4ccc(C(=N)N)cc4)cc3)cc2)cc1 [Example 42, 1,5-Bis-{4-[(4-carbamimidoyl-benzenesulfonylamino)-methyl]-phenoxy}-pentane]
2 | 3.7 µM | > 100 µM | > 100 µM |  | > 100 µM | 40 µM | 9 µM | 16 µM | 1.4 µM | > 100 µM | N=C(N)c1ccc(S(=O)(=O)NCc2cccc(OCCCCCOc3cccc(CNS(=O)(=O)c4ccc(C(=N)N)cc4)c3)c2)cc1 [Example 74, 1,5-Bis-{3-[(4-carbamimidoyl-benzenesulfonylamino)-methyl]-phenoxy}-pentane]
3 |  |  |  | 3.2 µM |  |  |  |  | 8 µM |  | N=C(N)c1ccc(S(=O)(=O)NCc2ccc(OCCCCCCOc3ccc(CNS(=O)(=O)c4ccc(C(=N)N)cc4)cc3)cc2)cc1 [Example 44, 1,6-Bis-{4-[(4-carbamimidoyl-benzenesulfonylamino)-methyl]-phenoxy}-hexane]
4 | > 100 µM | > 100 µM | > 100 µM |  | > 100 µM | 6 µM | 2.9 µM | > 100 µM | 3 µM | > 100 µM | N=C(N)c1cccc(S(=O)(=O)NCc2cccc(OCCCCCOc3cccc(CNS(=O)(=O)c4cccc(C(=N)N)c4)c3)c2)c1 [Example 75, 1,5-Bis-{3[-(3-carbamimidoyl-benzenesulfonylamino)-methyl]-phenoxy}-pentane]

Further lines, the compound ahead of its results:

Row | SMILES | Ki (Human plasma plasmin) | Ki [1] | Ki (Human plasma thrombin) | Ki (Human lung tryptase) | Ki [2] | Ki (Human plasma factor Xa) | Ki (Human plasma kallikrein) | Ki (r-tissue kallikrein) | Ki [3] | Ki [4]
5 | N=C(N)c1ccc(S(=O)(=O)NCc2ccc(OCCCCCCCOc3ccc(CNS(=O)(=O)c4ccc(C(=N)N)cc4)cc3)cc2)cc1 [Example 46, 1,7-Bis-{4-[(4-carbamimidoyl-benzenesulfonylamino)-methyl]-phenoxy}-heptane] |  |  |  | 1.5 µM |  |  |  |  |  | 
6 | N=C(N)c1ccc2[nH]c(CC(=O)NCc3ccc(CNCCNCc4ccc(CNC(=O)Cc5nc6cc(C(=N)N)ccc6[nH]5)cc4)cc3)nc2c1 [Example 119] |  |  |  | 0.002 µM |  |  |  |  |  | 
7 | N=C(N)c1ccc(S(=O)(=O)NCc2ccc(OCCOc3ccc(CNS(=O)(=O)c4ccc(C(=N)N)cc4)cc3)cc2)cc1 [Example 52, 1,2-Bis-{4-[(4-carbamimidoyl-benzenesulfonylamino)-methyl]-phenoxy}-ethane] |  |  |  | 1.5 µM |  |  |  |  |  | 
8 | N=C(N)c1ccc(S(=O)(=O)NCc2ccc(OCCCCOc3ccc(CNS(=O)(=O)c4ccc(C(=N)N)cc4)cc3)cc2)cc1 [Example 48, 1,4-Bis-{4-[(4-carbamimidoyl-benzenesulfonylamino)-methyl]-phenoxy}-butane] |  |  |  | 12.5 µM |  |  |  |  | 4.2 µM | 
